Reference: patent US9714229B2, “Crystal of tetracyclic compound” (Chugai Seiyaku Kabushiki Kaisha, priority 2014, dated 2017)

Key:
[1] = Measurement of vapor sorption isotherm of type II crystal (DVS-1); format: physicochemical; settings: for weight change rate (%): about 25° C.
Experimental: For the type II crystal of the monohydrochloride of 9-ethyl-6,6-dimethyl-8-(4-morpholin-4-yl-piperidin-1-yl)-11-oxo-6,11-dihydro-5H-benzo[b]carbazole-3-carbonitrile (about 5 mg), the vapor sorption isotherm was measured using a dynamic vapor sorption isotherm instrument: DVS-1 (Surface Measurement Systems) under the following conditions.
• Temperature: Constant temperature of about 25° C. • Atmospheric gas: Dry nitrogen • Flow rate of atmospheric gas: 200 sccm (ml/min) • Minimum waiting time: 10 min • Maximum waiting time: 1200 min • Mass change rate: 0.002 dm/dt (% min), where the mass change rate was 0.001 dm/dt (% min) at 5, 10, 15, 55, 60, and 65% RH.
Relative humidity: Relative humidity was varied to 0, 5, 10, 15, 20, 30, 40, 50, 55, 60, 65, 70, 80, 90, 80, 70, 65, 60, 55, 50, 40, 30, 20, 15, 10, 5, and 0% RR in this order. Such variation was regarded as one cycle, and three cycles were carried out. The weight change rate (%) of the type II crystal, when the temperature environment was varied from a relative humidity of 0% RH to 90% RH at about 25° C., was 3.7% in the range of a relative humidity from 0% RH to 15% RH, 0.05% in the range of a relative humidity from 15% RH to 55% RH, 11% in the range of a relative humidity from 55% RH to 65% RH, and 0.04% in the range of a relative humidity from 65% RH to 90% RH.

[2] = Investigation on transformation of crystal form of type II crystal due to humidity (powder X-ray diffraction); format: physicochemical
Experimental: For the type I, type II, and type III crystals of a monohydrochloride of 9-ethyl-6,6-dimethyl-8-(4-morpholin-4-yl-piperidin-1-yl)-11-oxo-6,11-dihydro-5H-benzo[b]carbazole-3-carbonitrile, the powder X-ray diffraction was measured under the following conditions. The measurement results for the type II crystal, the type III crystal, and the type I crystal are shown in FIGS. 1, 2, and 3. • Measuring apparatus: X'Pert-Pro MPD (manufactured by PANalytical HV) • Anticathode: Cu • Tube voltage: 45 kV • Tube current: 40 mA • Step width: 0.02 • Scan axis: 20 • Sampling time per: 43 seconds • Scan range: 3 to 40°
In order to investigate the transformation of the crystal form of the type II crystal of the monohydrochloride of 9-ethyl-6,6-dimethyl-8-(4-morpholin-4-yl-piperidin-1-yl)-11-oxo-6,11-dihydro-5H-benzo[b]carbazole-3-carbonitrile due to humidity, samples were placed in the following humidity conditions, and changes in crystal form were investigated using the powder X-ray diffraction.
Test Conditions 1 (Investigation on Transformation of Crystal form of Type II Crystal at Low Humidity)
• Amount of sample: About 17 mq • Temperature: Constant temperature of about 25° C. • Atmospheric gas: Dry nitrogen • Flow rate of atmospheric gas: 200 sccm (ml/min) • Mass change rate: 0.002 dm/dt • Relative humidity: Samples were placed at a relative humidity of 0% RH • Minimum waiting time: 10 min • Maximum waiting time: 1200 min. Test Conditions 2 (Iinvestigation on Transformation of Crystal Form of Type II Crystal at High Humidity) • Amount of sample: About 16 mg • Temperature: Constant temperature of about 25° C. • Atmospheric s: Dry nitrogen • Flow rate of atmospheric gas: 200 sccm (ml/min) • Mass change rate: 0.002 dm/dt (%/min) • Relative humidity: Samples were placed at a relative humidity of 70% RH • Minimum waiting time: 10 min • Maximum waiting time: 1200 min

CCc1cc2c(cc1N1CCC(N3CCOCC3)CC1)C(C)(C)c1[nH]c3cc(C#N)ccc3c1C2=O [type II crystal, 9-ethyl-6,6-dimethyl-8-(4-morpholin-4-yl-piperidin-1-yl)-11-oxo-6,11-dihydro-5H-benzo[b]carbazole-3-carbonitrile]
form inferred from molecular weight and mass change rate in high humidity environment ([1]; humidity of 65% RH or more): transformed into a monohydrochloride tetrahydrate | weight change rate (%) ([1]; relative humidity from 0% RH to 15% RH): 3.7% | weight change rate (%) ([1]; relative humidity from 15% RH to 55% RH): 0.05% | weight change rate (%) ([1]; relative humidity from 55% RH to 65% RH): 11% | weight change rate (%) ([1]; relative humidity from 65% RH to 90% RH): 0.04% | form inferred from molecular weight and mass change rate on storage at low humidity ([1]; stored in an atmosphere of 0% RH): transformed into a monohydrochloride | time after which crystal form had returned to the original form when allowed to stand in the air ([2]; after storage at 70% RH, powder X-ray diffraction measured over time): 4 h | time to return to the original crystal form when allowed to stand in the air ([2]; after storage at low humidity (0% RH)): within one hour | relative humidity at which the crystal absorbs moisture and transforms into another crystal form containing water of crystallization (high humidity environment) ([2]; inferred from the XRPD results): ≥ 65 RH | relative humidity at which the crystal dehydrates to an anhydrate (low humidity environment) ([2]; inferred from the XRPD results): ≤ 15 % RH | change in crystal form on storage at low humidity ([2]; relative humidity 0% RH, about 25° C., dry nitrogen, powder X-ray diffraction (FIG. 4)): transformation into another crystal form was caused | change in crystal form on storage at high humidity ([2]; relative humidity 70% RH, about 25° C., powder X-ray diffraction (FIG. 5)): transformation into another crystal form was caused
